Data taken from patent publication US10703724B2, “Crystalline forms of {[5-(3-chlorophenyl)-3-hydroxypyridine-2-carbonyl] amino} acetic acid and processes for preparation thereof” (Crystal Pharmaceutical (Suzhou) Co., Ltd., priority 2016, dated 2020).
Values after ≈ are worked out from the molar mass of the structure shown. “Also recorded” adds a separate entry of the source.

Legend:
[1] = Solubility in SGF (suspension rotated, filtrate concentration by HPLC); format: physicochemical; settings: for Solubility in SGF: SGF (simulated gastric fluids); for solubility in SGF compared with Form A in WO2015073779: SGF at 1 h, 4 h and 24 h
Protocol: Certain amount of Form CS1 in the present disclosure and Form A in WO2015073779 were weighted into vials and suspended in SGF (Simulated Gastric Fluids). The systems were rotated on the rotator at a rate of 25 r/min. After equilibrated for 1 h, 4 h and 24 h, the suspension was separated through 0.45 μm PTFE centrifugal filter and the filtrate was collected. The concentration of the filtrates was measured by HPLC.
(§1) Certain amount of Form CS8 in the present disclosure and Form A in WO2015073779 was weighted into vials and then suspended in SGF (Simulated gastric fluids) and water. The systems were rotated on the rotator at a rate of 25 r/min. After equilibrated for 1 h, 4 h and 24 h, the suspension was separated through 0.45 μm PTFE centrifugal filter and the filtrate was collected. The concentration of the filtrates was measured by HPLC.

[2] = Stability comparison experiment: slurry in water at room temperature, about 40 days; format: physicochemical
Protocol: Stability comparison experiment: about 4 mg of Form CS2 and Form A in WO2015073779 was weighted into a 1.5 mL glass vial and 1.0 mL of water was added into the vial. The solid form of the initial sample was tested. After stirring at a rate of 500 r/min at room temperature for about 40 days, the solid form of the sample was tested again. The XRPD pattern overlay is depicted in FIG. 13.

[3] = as disclosed in WO2015073779; cited from earlier work
[4] = Storage stability of the crystalline form (XRPD before and after storage); format: physicochemical; settings: for Solid Form after storage: XRPD
Protocol: Form CS1 in the present disclosure was stored under 25° C./60% RH and 40° C./75% RH for 1 month. The XRPD pattern was collected before and after storage, and the XRPD pattern overlay is depicted in FIG. 10.
Accelerated experiment: Form CS2 was stored under 25° C./60% RH, 40° C./75% RH and 60° C./75% RH for 1 month. The XRPD pattern was collected before and after storage, and the overlay is depicted in FIG. 11.
Form CS8 of the present disclosure was stored under 25° C./60% RH, 40° C./75% RH and 60° C./75% RH for 20 days.

[5] = Mechanical stability experiment: manual grinding for 5 minutes in a mortar; format: physicochemical; settings: XRPD
Protocol: Mechanical stability experiment: Form CS2 was manually ground for 5 minutes in a mortar. The XRPD pattern collected before and after grinding is depicted in FIG. 12.

[6] = Hygroscopicity by dynamic vapor sorption (DVS); format: physicochemical
Protocol: Dynamic Vapor Sorption (DVS) was measured via an SMS (Surface Measurement Systems Ltd.) intrinsic DVS instrument. Its control software is DVS-Intrinsic control software, and its analysis software is DVS-Intrinsic Analysis software. Typical Parameters for DVS test are as follows: • Temperature: 25° C. • Gas and flow rate: N2, 200 mL/min • dm/dt: 0.002%/min • RH range: 0% RH to 95% RH
Dynamic vapor sorption (DVS) was applied to test hygroscopicity of Form CS2 with 10 mg of sample.
Dynamic vapor sorption (DVS) was applied to test hygroscopicity of Form CS8 with 10 mg of sample and the DVS curve is depicted in FIG. 14. The weight gain of Form CS8 under 80% RH is 0.06%, which means Form CS8 is non hygroscopic or almost non hygroscopic.
Description and definition of hygroscopicity in the general principle 9103 of Chinese Pharmacopoeia: • deliquescent: Sufficient water is absorbed to form a liquid; • very hygroscopic: Increase in mass is equal to or greater than 15 percent; • hygroscopic: Increase in mass is less than 15 percent and equal to or greater than 2 percent; • slightly hygroscopic: Increase in mass is less than 2 percent and equal to or greater than 0.2 percent. • non hygroscopic or almost non hygroscopic: Increase in mass is less than 0.2%.

[7] = Pressure stability: tableting under 3 KN, 7 KN and 14 KN, XRPD before and after; format: physicochemical; settings: 7 KN and 14 KN pressure
Excerpt: Form CS2 was compressed using an ENERPAC manual tablet press under 3 KN, 7 KN and 14 KN pressure with φ6 mm round tooling (to ensure isotropy of the tablet). XRPD pattern overlay depicted in FIG. 15 was collected by a […] Panalytical Empyrean X-ray diffractometer before and after tableting.

[8] = Solubility in water (suspension rotated, filtrate concentration by HPLC); format: physicochemical
Protocol: as §1

[9] = 25° C./60% RH, 40° C./75% RH and 60° C./75% RH

Row | Compound | Solubility in SGF ([1]; equilibrated 1 h) | Solubility in SGF ([1]; equilibrated 4 h) | Solubility in SGF ([1]; equilibrated 24 h) | solubility in SGF compared with Form A in WO2015073779 [1] | Solid Form after storage ([4]; 25° C./60% RH, 1 month) | Solid Form after storage ([4]; 40° C./75% RH, 1 month) | time the form keeps stable [4, 9] | further results
1 | O=C(O)CNC(=O)c1ncc(-c2cccc(Cl)c2)cc1O [Form A in WO2015073779, {[5-(3-chlorophenyl)-3-hydroxypyridine-2-carbonyl]amino} acetic acid, reference compound] | 8.5 µg/mL (≈ 27.7 µM) | 8.6 µg/mL (≈ 28 µM) | 3.8 µg/mL (≈ 12.4 µM) |  |  |  |  | solid form after slurry in water ([2]; water, 500 r/min, room temperature, XRPD): almost completely converted to Form CS2
2 | O=C(O)CNC(=O)c1ncc(-c2cccc(Cl)c2)cc1O [Form B, {[5-(3-chlorophenyl)-3-hydroxypyridine-2-carbonyl]amino} acetic acid] |  |  |  |  |  |  |  | conversion in slurry at high temperature [3]: may convert to Form A
3 | O=C(O)CNC(=O)c1ncc(-c2cccc(Cl)c2)cc1O [Form CS1, {[5-(3-chlorophenyl)-3-hydroxypyridine-2-carbonyl]amino} acetic acid] | 23 µg/mL (≈ 75 µM) | 26 µg/mL (≈ 84.8 µM) | 19 µg/mL (≈ 61.9 µM) | higher | Form CS1, no form change | Form CS1, no form change |  | time the form keeps stable ([4]; 25° C./60% RH and 40° C./75% RH): at least 1 month
4 | O=C(O)CNC(=O)c1ncc(-c2cccc(Cl)c2)cc1O [Form CS2, {[5-(3-chlorophenyl)-3-hydroxypyridine-2-carbonyl]amino} acetic acid] |  |  |  |  | Form CS2, no form change | Form CS2, no form change | at least 1 month | Solid Form after storage ([4]; 25° C./60% RH, 20 days): Form CS8, no form change; Solid Form after storage ([4]; 40° C./75% RH, 20 days): Form CS8, no form change; Solid Form after storage ([4]; 60° C./75% RH, 1 month): Form CS2, no form change; Solid Form after storage ([4]; 60° C./75% RH, 20 days): Form CS8, no form change; stability in water compared with Form A in WO2015073779 ([2]; slurry in water): more stable; crystal structure after manual grinding [5]: doesn't change; weight gain from 40% RH to 80% RH ([6]; DVS, 25° C., 10 mg of sample): 0.11%; hygroscopicity (in words) ([6]; from weight gain 40% RH to 80% RH): low hygroscopic; form change after tableting [7]: no form change; also recorded: stable
5 | O=C(O)CNC(=O)c1ncc(-c2cccc(Cl)c2)cc1O [Form CS8, {[5-(3-chlorophenyl)-3-hydroxypyridine-2-carbonyl]amino} acetic acid] | 20 µg/mL (≈ 65.2 µM) | 22 µg/mL (≈ 71.7 µM) | 33 µg/mL (≈ 108 µM) | higher |  |  | at least 20 days | solubility in water compared with Form A in WO2015073779 [8]: higher; weight gain at 90% RH ([6]; DVS, 25° C.): 0.08%; weight gain at 80% RH ([6]; DVS, 25° C., 10 mg of sample): 0.06%; hygroscopicity class (Chinese Pharmacopoeia general principle 9103) ([6]; from weight gain under 80% RH): non hygroscopic or almost non hygroscopic (Increase in mass is less than 0.2%)
